Publication PMC7767381, “Exploring the Anti-Cancer Mechanism of Novel 3,4′-Substituted Diaryl Guanidinium Derivatives” (Pharmaceuticals, 2020)

System: MCF10A cells
Experiment: alamarBlue toxicity in non-tumorigenic MCF10A cells
Format: cell-based, human
From the text: Considering the promising cytotoxicity results obtained with the cancer cell lines, we also evaluated the potential toxicity of the most efficient derivative (compound 4) in the non-cancerous cell line MCF10A (human mammary epithelial cell line).
Cells were counted and seeded in 96-well plates at a density of 2 × 10^5 cells/mL for HL-60, 2.5 × 10^4 cells/mL for MCF-7, MCF10A and HeLa, 1 × 10^5 cells/mL for HCT116 and HKH-2, all of them in their respective media. The 96-well plates were then treated with a 1:100 dilution of stock concentrations of drugs or EtOH (1% v/v)/DMSO (0.1% v/v) as vehicle control in triplicate. Three blank wells containing 200 µL RPMI with no cells were also set-up as blanks. […] The plates were incubated in darkness at 37 °C for 4–5 h using a Molecular Devices microplate reader, the fluorescence (F) was then read at an excitation wavelength of 544 nm and an emission wavelength of 590 nm. Cell viability was then determined by subtracting the mean blank fluorescence (Fb) from the treated sample fluorescence (Fs) and expressing this as a percentage of the fluorescence of the blanked vehicle control (Fc). […] The results were then plotted as a nonlinear regression, sigmoidal dose-response curves on Prism, from which the IC50 value for each drug was determined. […]
Figure S11. Scatter correlation found between the calculated logP and the HL -60 cytotoxic […]

## Cl.N=C(N)Nc1ccc(Oc2cccc(Nc3ccc(Cl)c(C(F)(F)F)c3)c2)cn1 [Compound 4, 1-(5-(3-((4-Chloro-3-(trifluoromethyl)phenyl)amino)phenoxy)pyridin-2-yl)guanidine hydrochloride]
100 μM
  toxicity towards MCF10A: shows toxicity
10 and 1 μM
  effect on MCF10A cell viability: does not appear to affect in any way cell viability
